Data set [1] addresses T1, recombinant human delta opioid receptor (Homo sapiens (Human), UniProt P41143). The settings on record: GTP-γS binding, up to 10 μM.
Experimental: The reaction is initiated by 0.3 nM [^35S]GTPγS for an additional 30 minutes incubation period.
The target in data set [2] is T1, recombinant human delta opioid receptor. To be noted: Ki relative to nalbuphine. The protocol: (§1) Using conventional receptor binding assay techniques, several molecules were assayed to determine binding activity at kappa, mu and delta opioid subtypes of opioid receptors.
(§2) Cells were plated in 24 well plates at a density of 0.2-0.3*10^6 cells/well and washed with assay buffer containing 50 mM Tris.HCl and 5 mM MgCl2 (pH 7.4). Competition binding assays were conducted in whole cells incubated with increasing concentrations of test compounds in the presence of appropriate concentration of radioligand. 0.5 nM ^3H Naloxone, 0.5 nM ^3H Diprenorphine and 0.5 nM ^3H DPDPE were used as the competing radioligands for mu, kappa and delta receptors respectively. Incubations were carried out for two hours at room temperature using triplicate wells at each concentration. At the end of the incubation, cells were washed with 50 mM Tris HCl (pH 8.0), solubilized with NaOH and bound radioactivity was measured using a scintillation counter.
(§3) Specific binding is determined by subtraction of the cpm bound in the presence of 50-100× excess of cold ligand. Binding data assays were analyzed using GraphPad Prism 4.0 and IC50 is generated by non-linear regression from dose-response curves.

The target in data set [3] is T2, recombinant human mu opioid receptor (Homo sapiens (Human), UniProt P35372). It counts as binding. As for the experimental part: as §1, §2, §3
Data set [4] deals with recombinant human kappa opioid receptor (Homo sapiens (Human), UniProt P41145). In kind it is binding. The protocol:
as §1, §2, §3

The conditions of data set [5]: rats, 25 mg/kg intravenously, one hour after injection.
In the next data set the test system is CD-1 male mice. Kind of data set: Phenylquinone writhing analgesic assay. In kind it is in vivo, mouse. To be noted: pretreatment 30 min before PQ. The protocol:
Mice were treated according to standard protocols. Mice were given a single “pretreatment” dose of a compound lacking covalent attachment of a water-soluble, non-peptidic oligomer (i.e., non-PEG oligomer-modified parent molecule), a corresponding version comprising the compound covalently attached to a water-soluble, non-peptidic oligomer (i.e., the conjugate), or control solution (IV, SC, IP or orally) thirty minutes prior to the administration of the phenylquinone (PQ) solution. Each animal was given an IP injection of an irritant (phenylquinone, PQ) that induces “writhing” which may include: contractions of the abdomen, twisting and turning of the trunk, arching of the back, and the extension of the hindlimbs. Each animal was given an IP injection of PQ (1 mg/kg PQ, 0.1 mL/10 g bodyweight). After the injection, the animals were returned to their observation enclosure and their behavior was observed. Contractions were counted between 35 and 45 minutes after the “pretreatment”. The animals were used once. Each tested article was dosed at a range between 0.1 and 100 mg/kg (n=5-10 animals/dose).

The target of data set [6] is T2, recombinant human mu opioid receptor. In kind it is binding. The protocol: Radioligand displacement was measured using scintillation proximity assays (SPA).
Briefly, serial dilutions of the test compounds were placed in a 96-well plate to which were added SPA beads, membrane and radioligand. The assay conditions for each opioid receptor subtype are described in Table 10 below. The plates were incubated for 8 hours-overnight at room temperature, spun at 1000 rpm to pellet the SPA beads, and radioactivity was measured using the TopCount® microplate Scintillation counter. Specific binding at each concentration of test compound was calculated by subtracting the non-specific binding measured in the presence of excess cold ligand. IC50 values were obtained by non-linear regression of specific binding versus concentration curves and Ki values were calculated using Kd values that were experimentally pre-determined for each lot of membrane preparations.
The source holds these as a separate data set.

Data set [7] concerns the target cloned human mu opioid receptor (Homo sapiens (Human), UniProt P35372). In words: cell-based. The protocol: The efficacy of the various PEG-opioid conjugates was measured by their ability to inhibit cAMP formation following receptor activation. Studies were conducted in CHO cells heterologously expressing the cloned human mu, kappa or delta opioid receptors. cAMP was measured using a cAMP HiRange homogenous time-resolved fluorescence assay (HTRF Assay), that is based on a competitive immunoassay principle (Cisbio, Cat.#62AM6PEC).
Briefly, suspensions of cells expressing either the mu, kappa or delta opioid receptors were prepared in buffer containing 0.5 mM isobutyl-methyl xanthine (IBMX). […] EC50 values were calculated for each compound from a sigmoidal dose-response plot of concentrations versus maximum response. To determine if the compounds behaved as full or partial agonists in the system, the maximal response at the highest tested concentrations of compounds were compared to that produced by a known full agonist.

A short description of data set [8]: Intravenous pharmacokinetics in Sprague-Dawley rats. To be noted: hydroxycodone series, IV 1 mg/kg, rats, Mean ± SD.

Like-named read-outs stand apart in the source and are kept apart here.

This note sets out measurements from patent US9233167B2, “Oligomer-opioid agonist conjugates” (NEKTAR THERAPEUTICS, priority 2007, dated 2016).

T1 sequence (P41143 whole entry, looked up): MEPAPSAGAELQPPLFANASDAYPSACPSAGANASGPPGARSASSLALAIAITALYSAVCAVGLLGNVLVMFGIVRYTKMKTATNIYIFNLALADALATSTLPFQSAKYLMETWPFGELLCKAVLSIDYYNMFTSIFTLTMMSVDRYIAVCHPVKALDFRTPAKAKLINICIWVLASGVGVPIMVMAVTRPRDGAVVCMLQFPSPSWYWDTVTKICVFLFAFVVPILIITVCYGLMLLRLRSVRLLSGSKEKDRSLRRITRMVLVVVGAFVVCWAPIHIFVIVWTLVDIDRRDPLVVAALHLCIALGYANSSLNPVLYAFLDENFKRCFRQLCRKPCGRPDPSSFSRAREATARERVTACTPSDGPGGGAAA

As to `COCCOCCOCCO[C@H]1CC[C@@]2(O)[C@H]3Cc4ccc(O)c5c4[C@@]2(CCN3CC2CCC2)[C@H]1O5` [6-O-mPEG3-Nalbuphine, 6-O-mPEG3-nalbuphine], the “effect at the delta opioid receptor” value in data set [1] is listed as “no effect”. Besides, the “Fold vs Nalbuphine At DELTA” value in data set [2] was 0.51. Moreover, in data set [3], the “Fold vs Nalbuphine At MU” value was found to be 1.92. Also, the “Fold vs Nalbuphine at KAPPA” value in data set [4] was determined as 8.40. For the same molecule, the “brain:plasma ratio” value in data set [5] is reported as 0.23.

Take `COCCO[C@H]1CC[C@@]2(O)[C@H]3Cc4ccc(OC)c5c4[C@@]2(CCN3C)[C@H]1O5` [α-6-mPEG1-O-Hydroxycodone, α-6-mPEG1-O-hydroxycodone]: in the data set on CD-1 male mice, the “ED50 (mPEGn-O-HydroxyCodone series)” value is given as 6.064 mg/kg. For the same molecule, the Ki in [6] (SPA, CHO-K1 membranes, [3H]DAMGO 6 nM) amounted to 654 nM. Moreover, the EC50 in [7] (inhibition of cAMP formation, 3 μM forskolin, CHO cells) was 3840 nM. In addition, the “MU OPIOID RECEPTOR % max effect” value in data set [7] (inhibition of cAMP formation, maximal response vs known full agonist) is on record as 102%.

As for `COCCOCCOCCOCCO[C@H]1CC[C@@]2(O)[C@H]3Cc4ccc(OC)c5c4[C@@]2(CCN3C)[C@H]1O5` [α-6-mPEG4-O-Hydroxycodone, α-6-mPEG4-O-hydroxycodone], the “ED50 (mPEGn-O-HydroxyCodone series)” value in the data set with CD-1 male mice was 17.31 mg/kg. In data set [8], this molecule gave an AUCinf of 11600 ± 827 ng·min/mL, a CL of 86.5 ± 6.36 mL/min/kg, a Cmax of 537 ± 31.0 ng/mL and an MRTlast of 35.6 ± 2.88 min. For the same molecule, in [8], the “T1/2(z)” value amounted to 43.6 ± 3.27 min and the Vss stood at 3.34 ± 0.113 L/kg. For the same molecule, in data set [6], the inhibitory constant (Ki) worked out at 893 nM. Further, in [7], the EC50 turned out to be 3720 nM and the “MU OPIOID RECEPTOR % max effect” value is given as 109%.
